Reference: ChEMBL document CHEMBL1201862, “PubChem BioAssay data set” (2004)
The source made the active and inactive calls.

Tests used:
[1] = target: T1, Rac GTPase-activating protein 1 (Homo sapiens, UniProt Q9H0H5); test: blockers of MgcRacGAP-driven Rac1 GTP hydrolysis – biochemical, ADP Hunter fluorescence, primary and confirmatory, confirmation (AID 624330); assay type: functional
T1 sequence (Q9H0H5 whole entry): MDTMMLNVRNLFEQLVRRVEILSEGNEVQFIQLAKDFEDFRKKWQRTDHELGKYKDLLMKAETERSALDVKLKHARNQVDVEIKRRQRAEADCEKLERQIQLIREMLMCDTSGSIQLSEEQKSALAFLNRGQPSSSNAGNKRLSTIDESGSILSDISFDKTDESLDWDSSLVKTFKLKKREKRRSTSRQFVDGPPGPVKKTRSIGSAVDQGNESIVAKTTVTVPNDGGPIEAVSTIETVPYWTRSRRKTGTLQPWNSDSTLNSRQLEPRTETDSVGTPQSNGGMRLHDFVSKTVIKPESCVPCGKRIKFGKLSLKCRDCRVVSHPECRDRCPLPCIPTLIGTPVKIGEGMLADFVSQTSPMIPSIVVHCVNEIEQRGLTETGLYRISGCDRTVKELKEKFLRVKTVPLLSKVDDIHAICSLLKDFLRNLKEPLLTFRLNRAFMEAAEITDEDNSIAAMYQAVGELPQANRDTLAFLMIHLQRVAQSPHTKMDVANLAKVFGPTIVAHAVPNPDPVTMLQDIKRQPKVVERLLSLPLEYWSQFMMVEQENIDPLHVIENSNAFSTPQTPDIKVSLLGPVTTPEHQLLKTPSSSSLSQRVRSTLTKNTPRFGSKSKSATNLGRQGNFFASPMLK

[2] = target: Envelope glycoprotein gp160 (Human immunodeficiency virus 1, UniProt Q6QLK5); test: cell-free HIV fusion peptide-binding blockers – biochemical, uHTS, fluorescence dequenching, […] (AID 1986)
Chain of Envelope glycoprotein gp160 (Q6QLK5 whole entry, the tested form may be a part): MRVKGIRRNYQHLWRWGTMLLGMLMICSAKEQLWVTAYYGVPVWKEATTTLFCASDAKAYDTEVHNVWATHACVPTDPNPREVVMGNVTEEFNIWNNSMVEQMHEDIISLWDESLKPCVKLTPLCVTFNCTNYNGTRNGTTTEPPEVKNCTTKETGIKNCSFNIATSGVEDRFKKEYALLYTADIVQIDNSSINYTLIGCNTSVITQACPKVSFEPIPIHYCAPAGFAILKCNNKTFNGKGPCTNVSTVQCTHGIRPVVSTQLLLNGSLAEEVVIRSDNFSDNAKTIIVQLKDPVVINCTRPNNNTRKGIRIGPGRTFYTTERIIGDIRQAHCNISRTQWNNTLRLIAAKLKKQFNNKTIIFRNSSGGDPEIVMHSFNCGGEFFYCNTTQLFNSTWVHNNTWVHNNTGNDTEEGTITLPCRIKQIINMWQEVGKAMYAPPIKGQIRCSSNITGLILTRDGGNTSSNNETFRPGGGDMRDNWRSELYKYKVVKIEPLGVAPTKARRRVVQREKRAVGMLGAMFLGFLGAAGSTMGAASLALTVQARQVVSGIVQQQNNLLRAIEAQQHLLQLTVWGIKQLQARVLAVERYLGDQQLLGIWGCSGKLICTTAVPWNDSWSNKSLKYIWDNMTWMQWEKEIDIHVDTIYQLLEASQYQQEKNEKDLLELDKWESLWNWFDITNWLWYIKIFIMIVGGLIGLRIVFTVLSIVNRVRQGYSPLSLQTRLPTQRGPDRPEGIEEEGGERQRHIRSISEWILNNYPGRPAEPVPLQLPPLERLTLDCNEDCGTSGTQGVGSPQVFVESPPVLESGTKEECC

Genome polyprotein = Genome polyprotein (dengue virus type 2, UniProt P29990); test: flavivirus cap methylation enzyme inhibition – biochemical, confirmation dose response, primary screen (AID 588689); assay type: functional
Bcl-2-like protein 10 = Bcl-2-like protein 10 (Homo sapiens, UniProt Q9HD36); test: Bcl-B/TR3 peptide binding disruption – biochemical, fluorescence polarization, FITC-TR3 peptide, selectivity assay for Bfl-1 inhibitor project, primary screen (AID 748);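 also: fluorescence polarization from a fluorescein-labelled TR3 peptide binding purified Bcl-B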
Chain of Bcl-2-like protein 10 (Q9HD36 whole entry): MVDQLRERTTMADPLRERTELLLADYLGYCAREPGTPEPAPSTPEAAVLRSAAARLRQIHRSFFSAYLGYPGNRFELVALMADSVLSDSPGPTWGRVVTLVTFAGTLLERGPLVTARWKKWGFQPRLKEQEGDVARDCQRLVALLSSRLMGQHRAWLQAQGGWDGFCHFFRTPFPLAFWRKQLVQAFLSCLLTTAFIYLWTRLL

Estrogen receptor beta [3] = target: T2, Estrogen receptor beta (Homo sapiens, UniProt Q92731);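 also: recombinant ER-beta bound to coactivator SRC1 peptide in presence of estradiol agonist; inhibitors block coactivator peptide binding and lower the FRET signal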
T2 sequence (Q92731 whole entry): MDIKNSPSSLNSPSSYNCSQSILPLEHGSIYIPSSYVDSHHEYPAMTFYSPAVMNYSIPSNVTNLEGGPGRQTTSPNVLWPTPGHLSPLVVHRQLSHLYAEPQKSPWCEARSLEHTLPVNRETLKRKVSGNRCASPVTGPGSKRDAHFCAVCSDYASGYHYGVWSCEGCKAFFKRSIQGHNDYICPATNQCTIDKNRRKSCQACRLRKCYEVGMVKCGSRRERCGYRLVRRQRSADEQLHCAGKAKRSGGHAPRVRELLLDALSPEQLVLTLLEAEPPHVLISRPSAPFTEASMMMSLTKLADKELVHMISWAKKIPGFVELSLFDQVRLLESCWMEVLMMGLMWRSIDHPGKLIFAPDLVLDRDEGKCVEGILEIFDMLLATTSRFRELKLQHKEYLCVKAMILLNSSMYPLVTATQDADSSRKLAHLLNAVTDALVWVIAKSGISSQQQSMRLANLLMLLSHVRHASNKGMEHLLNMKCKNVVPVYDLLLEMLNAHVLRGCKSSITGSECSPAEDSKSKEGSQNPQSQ

Estrogen receptor beta [4] = target: T2, Estrogen receptor beta; test: blockers of SRC-3 recruitment to ERβ – biochemical, ELISA, streptavidin-HRP readout, orthogonal assay, confirmation (AID 1060)
[5] = target: G-protein coupled receptor 55 (Homo sapiens, UniProt Q9Y2T6); test: selective activators of receptor GPR55 – imaging, U2OS cells, beta-arrestin-GFP redistribution, primary screen (AID 1961); assay type: functional
Chain of G-protein coupled receptor 55 (Q9Y2T6 whole entry): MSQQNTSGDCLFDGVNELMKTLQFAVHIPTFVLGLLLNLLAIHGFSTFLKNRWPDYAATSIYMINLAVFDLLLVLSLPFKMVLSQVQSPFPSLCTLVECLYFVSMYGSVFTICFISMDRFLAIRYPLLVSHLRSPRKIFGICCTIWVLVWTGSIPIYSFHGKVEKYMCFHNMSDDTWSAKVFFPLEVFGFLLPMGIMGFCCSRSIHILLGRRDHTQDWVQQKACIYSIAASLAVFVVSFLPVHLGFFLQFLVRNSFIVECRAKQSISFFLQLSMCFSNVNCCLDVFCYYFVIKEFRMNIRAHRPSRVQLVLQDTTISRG

Cytochrome P450 2C9 = Cytochrome P450 2C9 (Homo sapiens, UniProt P11712)
Chain of Cytochrome P450 2C9 (P11712 whole entry): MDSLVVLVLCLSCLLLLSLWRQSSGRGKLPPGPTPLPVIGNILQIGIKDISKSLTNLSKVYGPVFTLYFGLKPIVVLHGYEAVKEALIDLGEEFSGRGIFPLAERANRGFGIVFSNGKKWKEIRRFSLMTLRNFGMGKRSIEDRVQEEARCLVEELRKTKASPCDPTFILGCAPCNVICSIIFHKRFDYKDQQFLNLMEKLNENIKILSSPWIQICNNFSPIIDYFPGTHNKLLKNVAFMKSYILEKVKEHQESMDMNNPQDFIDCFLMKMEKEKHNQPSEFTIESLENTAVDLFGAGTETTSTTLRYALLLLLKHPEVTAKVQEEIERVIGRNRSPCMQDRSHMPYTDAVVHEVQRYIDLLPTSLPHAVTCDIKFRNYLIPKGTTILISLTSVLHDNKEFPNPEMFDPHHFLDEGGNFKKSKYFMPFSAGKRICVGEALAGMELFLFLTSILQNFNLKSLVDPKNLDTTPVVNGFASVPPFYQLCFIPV

Cysteine protease ATG4B = target: T3, Cysteine protease ATG4B (Homo sapiens, UniProt Q9Y4P1); assay type: functional;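 also: Fluorescence-based dose-response confirmation assay measuring inhibition of ATG4B activity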
T3 sequence (Q9Y4P1 whole entry): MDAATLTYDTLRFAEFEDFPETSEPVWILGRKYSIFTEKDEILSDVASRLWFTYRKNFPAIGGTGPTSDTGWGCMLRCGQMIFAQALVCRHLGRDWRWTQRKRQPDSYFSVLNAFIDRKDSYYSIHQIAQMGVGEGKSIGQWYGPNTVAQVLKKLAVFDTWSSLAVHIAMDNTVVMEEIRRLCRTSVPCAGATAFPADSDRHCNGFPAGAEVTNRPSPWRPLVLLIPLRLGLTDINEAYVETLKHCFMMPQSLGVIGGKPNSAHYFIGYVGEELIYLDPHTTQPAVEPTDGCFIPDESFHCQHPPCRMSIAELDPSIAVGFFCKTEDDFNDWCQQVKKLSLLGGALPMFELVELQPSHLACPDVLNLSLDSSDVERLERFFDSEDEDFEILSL

Phospholipase A2 = Phospholipase A2 (Homo sapiens, UniProt P04054); assay type: functional;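 also: confirmatory dose-response counterscreen on phospholipase A2, testing hits that came from an ultra-high-throughput screen for ATG4B inhibitors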
Chain of Phospholipase A2 (P04054 whole entry): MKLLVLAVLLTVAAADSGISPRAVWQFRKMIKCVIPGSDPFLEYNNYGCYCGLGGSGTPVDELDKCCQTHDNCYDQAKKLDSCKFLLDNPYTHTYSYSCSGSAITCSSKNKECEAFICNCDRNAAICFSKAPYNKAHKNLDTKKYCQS

[6] = alpha-synuclein stem-loop luciferase translation blockers – H4 neuroglioma cells, luminescence, confirmation (AID 1988); assay type: functional, cell-based
[7] = luciferase reporter signal suppression in cells – H4 neuroglioma cells, luminescence, dose response (AID 1990); assay type: functional, cell-based
X-box-binding protein 1 = X-box-binding protein 1 (Homo sapiens, UniProt P17861); assay type: functional, Cricetulus griseus;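 also: confirmatory dose-response counter-screen serving a CHOP assay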
Chain of X-box-binding protein 1 (P17861 whole entry): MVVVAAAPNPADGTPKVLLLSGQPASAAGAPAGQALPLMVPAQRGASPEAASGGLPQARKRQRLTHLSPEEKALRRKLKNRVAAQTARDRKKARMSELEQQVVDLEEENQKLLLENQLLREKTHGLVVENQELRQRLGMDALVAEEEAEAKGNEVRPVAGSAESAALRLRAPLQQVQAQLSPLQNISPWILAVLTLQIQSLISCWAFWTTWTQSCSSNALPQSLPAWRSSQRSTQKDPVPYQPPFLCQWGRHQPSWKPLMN

Melanocortin receptor 4 = Melanocortin receptor 4 (Homo sapiens, UniProt P32245); assay type: functional, cell-based;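 also: Cell-based assay with luminescence read-out, confirmatory dose-response testing for agonist activity of biased ligands at MC4R; human U2OS cells with tagged receptor and beta-arrestin; potency of agonists that increase receptor coupling to beta-arrestin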
Chain of Melanocortin receptor 4 (P32245 whole entry): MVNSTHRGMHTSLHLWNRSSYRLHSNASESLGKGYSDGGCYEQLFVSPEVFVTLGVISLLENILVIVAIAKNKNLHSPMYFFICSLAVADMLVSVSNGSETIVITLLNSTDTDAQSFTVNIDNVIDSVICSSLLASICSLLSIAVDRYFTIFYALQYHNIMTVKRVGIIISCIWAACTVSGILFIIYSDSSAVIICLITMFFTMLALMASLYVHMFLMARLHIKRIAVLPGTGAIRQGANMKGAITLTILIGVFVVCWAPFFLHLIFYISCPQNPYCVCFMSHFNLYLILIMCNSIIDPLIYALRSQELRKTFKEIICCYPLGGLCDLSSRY

INS1 = test: INS-1E survival protection against cytokine death – cell-based, luminescence, retest, dose response (AID 449756); assay type: functional; conditions: Rattus norvegicus;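 also: cell death triggered by IL-1 beta plus TNF-alpha plus IFN-gamma mixture; protective hits raise ATP signal compared with cytokine alone wells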
[8] = target: Neurotensin receptor type 1 (Homo sapiens, UniProt P30989); assay type: functional;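 also: Image-based confirmatory dose-response assay measuring agonist activity at NTR1; NTR1-expressing U2OS osteosarcoma cells imaged for beta-arrestin GFP spot formation; agonist potency where compounds increase beta-arrestin recruitment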
Chain of Neurotensin receptor type 1 (P30989 whole entry): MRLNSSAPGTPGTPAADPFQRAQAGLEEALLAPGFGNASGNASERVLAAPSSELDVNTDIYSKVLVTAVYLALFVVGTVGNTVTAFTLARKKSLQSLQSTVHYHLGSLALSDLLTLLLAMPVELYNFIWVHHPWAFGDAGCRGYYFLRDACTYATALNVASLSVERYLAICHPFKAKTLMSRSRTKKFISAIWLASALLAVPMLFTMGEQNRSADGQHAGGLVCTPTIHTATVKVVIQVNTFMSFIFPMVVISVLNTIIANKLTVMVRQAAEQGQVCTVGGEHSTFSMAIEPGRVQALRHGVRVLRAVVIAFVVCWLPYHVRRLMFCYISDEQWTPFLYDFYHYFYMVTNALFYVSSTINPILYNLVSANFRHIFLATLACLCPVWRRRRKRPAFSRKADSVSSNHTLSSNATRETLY

[9] = general mammalian cell viability loss – activator set, cherry-pick, cytotoxicity control for miR-122 modulator project, dose response (AID 720690); assay type: functional, cell-based;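 also: HEK293T human cells scored for general mammalian cytotoxicity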
[10] = target: T4, DNA repair and recombination protein RAD54-like (Homo sapiens, UniProt Q92698); test: RAD54 Holliday junction migration blockers – biochemical, fluorescence, cherry-picked samples, dose series, confirmation (AID 651657); assay type: functional
T4 sequence (Q92698 whole entry): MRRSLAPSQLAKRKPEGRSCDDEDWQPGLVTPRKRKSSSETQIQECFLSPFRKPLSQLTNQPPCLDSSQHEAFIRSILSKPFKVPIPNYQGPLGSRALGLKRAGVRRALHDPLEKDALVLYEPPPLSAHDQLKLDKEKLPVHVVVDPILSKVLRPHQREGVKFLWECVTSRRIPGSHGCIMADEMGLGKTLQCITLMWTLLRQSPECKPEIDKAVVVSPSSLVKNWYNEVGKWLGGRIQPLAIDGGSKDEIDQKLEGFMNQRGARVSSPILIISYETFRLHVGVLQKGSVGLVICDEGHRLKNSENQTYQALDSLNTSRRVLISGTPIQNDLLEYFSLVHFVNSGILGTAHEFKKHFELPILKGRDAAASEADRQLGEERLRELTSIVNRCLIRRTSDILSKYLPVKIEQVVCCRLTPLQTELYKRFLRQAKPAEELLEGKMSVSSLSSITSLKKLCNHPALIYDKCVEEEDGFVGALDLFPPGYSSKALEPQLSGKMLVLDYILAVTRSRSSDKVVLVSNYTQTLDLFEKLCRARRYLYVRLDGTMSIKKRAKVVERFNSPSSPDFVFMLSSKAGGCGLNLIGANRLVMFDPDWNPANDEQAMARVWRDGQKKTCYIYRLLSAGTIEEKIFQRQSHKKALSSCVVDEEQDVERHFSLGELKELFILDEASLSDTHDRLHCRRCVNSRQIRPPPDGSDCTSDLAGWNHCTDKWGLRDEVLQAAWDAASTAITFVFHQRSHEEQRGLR

[11] = NIH3T3 cell viability loss – ATP luminescence, mouse fibroblasts, counter-screen, dose response (AID 2010); assay type: functional, cell-based;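 also: cells exposed to compound for about 90 hours before reading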
[12] = cytotoxicity toward MDA-MB-231 breast cancer cells – cell-based, CellTiter-Glo luminescence, cherry-pick, cytotoxicity control for RAD54 inhibitor project, dose response (AID 651692); assay type: functional
[13] = Trypanosoma cruzi growth suppression in host cells – NIH3T3 host cells, beta-gal luminescence, confirmation (AID 2044); assay type: functional, cell-based;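 also: intracellular parasites grown in NIH/3T3 mouse fibroblasts as host cells; luminescent beta-galactosidase reporter signal from transgenic T. cruzi replicating inside host cells; inhibitors lower the luminescence signal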
[14] = target: Female germline-specific tumor suppressor gld-1 (Caenorhabditis elegans, UniProt Q17339); test: blockers of GLD-1/TGE RNA complex formation – biochemical, fluorescence polarization, C. elegans, dose response (AID 2802);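 also: fluorescence polarization of labeled TGE RNA bound by purified gld-1 protein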
Chain of Female germline-specific tumor suppressor gld-1 (Q17339 whole entry): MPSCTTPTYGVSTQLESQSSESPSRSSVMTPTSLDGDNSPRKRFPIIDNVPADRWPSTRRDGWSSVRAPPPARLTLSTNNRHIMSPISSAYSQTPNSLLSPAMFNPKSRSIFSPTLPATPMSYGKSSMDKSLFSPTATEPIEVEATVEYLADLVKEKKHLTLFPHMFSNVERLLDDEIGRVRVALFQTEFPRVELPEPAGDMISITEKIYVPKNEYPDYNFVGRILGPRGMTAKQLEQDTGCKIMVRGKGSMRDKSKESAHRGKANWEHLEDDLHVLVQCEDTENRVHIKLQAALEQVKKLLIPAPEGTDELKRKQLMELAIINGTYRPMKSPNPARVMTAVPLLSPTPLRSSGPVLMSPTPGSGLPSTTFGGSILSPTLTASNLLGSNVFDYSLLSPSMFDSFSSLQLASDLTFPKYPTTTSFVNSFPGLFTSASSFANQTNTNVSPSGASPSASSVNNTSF

Protein Rev = Protein Rev (Human immunodeficiency virus type 1 group M subtype B (isolate HXB2)(HIV-1), UniProt P04618); test: blockers of HIV Rev/RRE RNA complex – biochemical, fluorescence polarization, HIV-1, dose response (AID 434976); set-up: species or system Human immunodeficiency virus 1
[15] = target: T5, Dual specificity protein phosphatase 6 (Rattus norvegicus, UniProt Q64346); assay type: functional;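 also: confirmatory in vitro dose-response testing of MKP-3 inhibition; recombinant His-tagged MKP-3 made in E. coli BL21 with OMFP substrate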
T5 sequence (Q64346 whole entry): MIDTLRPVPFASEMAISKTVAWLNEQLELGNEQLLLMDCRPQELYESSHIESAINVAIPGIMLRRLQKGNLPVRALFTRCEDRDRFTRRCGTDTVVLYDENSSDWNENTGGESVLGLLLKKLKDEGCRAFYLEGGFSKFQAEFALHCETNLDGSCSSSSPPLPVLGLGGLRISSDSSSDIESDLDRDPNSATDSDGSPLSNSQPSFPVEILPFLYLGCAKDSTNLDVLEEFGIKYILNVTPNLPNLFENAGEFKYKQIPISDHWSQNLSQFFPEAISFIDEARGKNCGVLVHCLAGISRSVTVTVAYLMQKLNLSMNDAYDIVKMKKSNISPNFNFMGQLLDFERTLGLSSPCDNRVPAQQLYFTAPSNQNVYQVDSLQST

[16] = target: T6, Tyrosine-protein phosphatase non-receptor type 7 (Homo sapiens, UniProt P35236); test: redox-active compounds inhibiting HePTP phosphatase – biochemical, fluorescence, mechanism study (AID 2068); assay type: functional
T6 sequence (P35236 whole entry): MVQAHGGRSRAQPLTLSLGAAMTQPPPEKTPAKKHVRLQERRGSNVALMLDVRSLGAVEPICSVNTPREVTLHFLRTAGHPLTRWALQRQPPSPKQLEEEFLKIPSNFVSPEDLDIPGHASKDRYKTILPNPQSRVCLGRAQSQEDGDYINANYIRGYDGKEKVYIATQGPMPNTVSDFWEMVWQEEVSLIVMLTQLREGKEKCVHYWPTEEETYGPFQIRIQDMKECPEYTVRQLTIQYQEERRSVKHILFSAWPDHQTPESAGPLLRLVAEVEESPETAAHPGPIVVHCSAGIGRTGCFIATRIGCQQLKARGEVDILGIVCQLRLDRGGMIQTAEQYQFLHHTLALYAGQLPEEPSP

[17] = target: T7, Dual specificity protein phosphatase 3 (Homo sapiens, UniProt P51452); test: SAR VHR1 absorbance Assay for In Vitro dose response studies. [Related pubchem assays (depositor defined):AID1654, AID1661, AID1878, AID1992, AID2004]
T7 sequence (P51452 whole entry): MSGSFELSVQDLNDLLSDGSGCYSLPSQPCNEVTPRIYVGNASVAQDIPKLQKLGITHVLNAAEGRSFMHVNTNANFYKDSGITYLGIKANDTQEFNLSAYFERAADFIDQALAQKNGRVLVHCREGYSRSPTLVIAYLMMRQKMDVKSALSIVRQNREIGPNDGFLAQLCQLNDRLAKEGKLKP

[18] = target: T7, Dual specificity protein phosphatase 3; test: SAR VHR1 Fluorescent Assay for In Vitro dose response studies. [Related pubchem assays (depositor defined):AID1654, AID1661, AID1878, AID1992, AID2004, AID2070, AID2085]; assay type: functional
Mu-type opioid receptor = Mu-type opioid receptor (Homo sapiens, UniProt P35372); test: SAR Analysis of Antagonists of the MOR Receptor using an Image-Based Assay - Set 3. [Related pubchem assays (depositor defined):AID1777, AID1785, AID1786, AID1966, AID2133, AID2136, AID2284, AID2285, AID2420]; assay type: functional
[19] = target: T8, Kappa-type opioid receptor (Homo sapiens, UniProt P41145); test: SAR analysis of small molecule antagonists of the kappa opioid receptor via a luminescent beta-arrestin assay - Set 3. [Related pubchem assays (depositor defined):AID1777, AID1778, AID1785, AID1786, AID1966, AID2133, AID2136, AID2285, AID2495]; assay type: functional
T8 sequence (P41145 whole entry): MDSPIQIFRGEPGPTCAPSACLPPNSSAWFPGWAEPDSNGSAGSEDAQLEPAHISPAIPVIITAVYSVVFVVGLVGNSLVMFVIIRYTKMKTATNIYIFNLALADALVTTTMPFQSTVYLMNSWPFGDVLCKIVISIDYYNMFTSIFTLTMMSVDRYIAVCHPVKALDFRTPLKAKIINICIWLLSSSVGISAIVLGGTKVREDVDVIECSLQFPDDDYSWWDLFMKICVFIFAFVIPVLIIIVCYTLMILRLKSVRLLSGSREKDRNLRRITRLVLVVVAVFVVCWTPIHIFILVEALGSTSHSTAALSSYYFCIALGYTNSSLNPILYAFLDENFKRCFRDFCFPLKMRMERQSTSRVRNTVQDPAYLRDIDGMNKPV

[20] = target: Delta-type opioid receptor (Homo sapiens, UniProt P41143); test: SAR Analysis of Antagonists of the DOR Receptor using an Image-Based Assay - Set 3. [Related pubchem assays (depositor defined):AID1777, AID1785]; assay type: functional;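 also: U2OS cells expressing DOR1 and beta-arrestin GFP stimulated with 100 nM SNC80; imaging of GFP-tagged beta-arrestin moving into spots after receptor activation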
Chain of Delta-type opioid receptor (P41143 whole entry): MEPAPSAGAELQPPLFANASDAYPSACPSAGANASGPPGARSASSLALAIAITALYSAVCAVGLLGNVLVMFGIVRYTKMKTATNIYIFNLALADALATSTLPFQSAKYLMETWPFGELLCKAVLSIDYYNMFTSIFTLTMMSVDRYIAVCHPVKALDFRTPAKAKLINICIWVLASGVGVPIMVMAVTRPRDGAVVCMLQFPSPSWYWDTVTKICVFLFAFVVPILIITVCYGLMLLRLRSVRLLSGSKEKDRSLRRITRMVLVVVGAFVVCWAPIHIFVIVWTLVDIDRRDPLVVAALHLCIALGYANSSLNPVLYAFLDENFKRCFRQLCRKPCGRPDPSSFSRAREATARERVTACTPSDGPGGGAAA

[21] = target: T8, Kappa-type opioid receptor; test: SAR analysis of Antagonists of the Kappa Opioid Receptor (KOR) using an Image-Based Assay - Set 3. [Related pubchem assays (depositor defined):AID1777, AID1785]; assay type: functional
[22] = target: Sphingosine 1-phosphate receptor 4 (Homo sapiens, UniProt O95977); test: potency of S1P4 activators – cell-based, fluorescence, synthesized compounds, late-stage follow-up (AID 463107); assay type: functional

CN1C(=O)/C(=C/c2ccc(C(=O)Nc3ccc(O)cc3C(=O)O)cc2)SC1=S
IC50 [1]: 55.1 µM (active) | IC50 [2]: 11.3 µM (active) | IC50 (Genome polyprotein): 31.8 µM (active)

CCOc1ccc2[nH]c(=O)c(=O)[nH]c2c1
IC50 (Bcl-2-like protein 10): > 50 µM (inactive) | IC50 (Estrogen receptor beta [3]): > 50 µM (not active) | IC50 (Estrogen receptor beta [4]): 12.2 µM (not active)

COc1cc(/C=C2/C(=N)N3C=CSC3=NC2=O)ccc1OCCCOc1c(C)cccc1C
EC50 [5]: 4.7 µM (active) | AC50 (Cytochrome P450 2C9): 2 µM (inconclusive) | IC50 (Cysteine protease ATG4B): 7.86 µM (active) | IC50 (Phospholipase A2): 3.11 µM (active)

CC(C)Cn1c(=O)c2ccccc2n2c(SCC(=O)N3c4ccccc4CC3C)nnc12 (configuration not stated)
EC50 [6]: > 120 µM (not active) | EC50 [7]: 36 µM (active) | Absolute IC50 (XBP1) (X-box-binding protein 1): 10 µM

Cc1cc(C)cc(OCC(O)CN2CCC(CN3C(=O)c4cccc5cccc(c45)C3=O)CC2)c1 (configuration not stated)
EC50 (Melanocortin receptor 4): > 89.2 µM (inactive) | AC50 (INS1): 5.59 µM (active) | EC50 [8]: 18.6 µM (active) | AC50 [9]: 15.9 µM (active) | AC50 [10]: 7.63 µM (active) | EC50 [11]: 9.92 µM (active) | AC50 [12]: 23.6 µM (active) | EC50 [13]: 1.82 µM (active)

c1cc2c3c(cccc3c1)C(N1CCOCC1)=N2
IC50 [14]: 8.44 µM (active) | IC50 (Protein Rev): 29.2 µM (not active)

Fc1ccc(OCCn2cc(C(=S)N3CCCCC3)c3ccccc32)cc1
IC50 [15]: > 99 µM (inactive) | IC50 [16]: 47.2 µM (active) | IC50 [17]: > 100 µM (inactive) | IC50 [18]: > 99 µM (inactive)

CCc1ccc(S(=O)(=O)NCc2ccc(C(=O)NCCN(Cc3ccc(Br)cc3)C(C)C)cc2)cc1
IC50 (Mu-type opioid receptor): > 32 µM (inactive) | IC50 [19]: 0.82 µM (active) | IC50 [20]: > 32 µM (inactive) | IC50 [21]: 0.523 µM (active)

Cc1ccc(OCCCOc2ccc(C)nc2[N+](=O)[O-])c([N+](=O)[O-])n1
EC50 [22]: > 50 µM (inactive)
